Reference: PubChem BioAssay AID256 (DTP/NCI, 2004)
Where “and” joins values, the source holds several entries; their conditions need not be identical. Identical values can stand only once. Toxic doses and inconclusive results are not listed.

Tested on: CD2F1 mice, L1210 leukemia ip, survival T/C
Experiment: NCI In Vivo Anticancer Drug Screen. Data for tumor model L1210 Leukemia (intraperitoneal) in CD2F1 (CDF1) mice
Conditions: higher = longer survival
How it was run: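 Each value reflects a quotient of treated over vehicle control outcomes in mice with a transplanted tumor.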

[1] = endpoint: mean survival time, dose: 100.0 mg/kg/injection, schedule: Q04DX003 (ip), vehicle: saline with Tween-80
[2] = endpoint: mean survival time, dose: 100.0 mg/kg/injection, schedule: Q01DX001 (ip), vehicle: saline with Tween-80
[3] = endpoint: mean survival time, dose: 200.0 mg/kg/injection, schedule: Q01DX001 (ip), vehicle: saline with Tween-80
[4] = endpoint: mean survival time, dose: 100.0 mg/kg/injection, schedule: Q01DX009 (ip), vehicle: saline with Tween-80
[5] = endpoint: mean survival time, dose: 200.0 mg/kg/injection, schedule: Q01DX009 (ip), vehicle: saline with Tween-80
[6] = endpoint: mean survival time, dose: 400.0 mg/kg/injection, schedule: Q01DX009 (ip), vehicle: saline with Tween-80
[7] = endpoint: mean survival time, dose: 200.0 mg/kg/injection, schedule: Q04DX003 (ip), vehicle: saline with Tween-80
[8] = endpoint: mean survival time, dose: 200.0 mg/kg/injection, schedule: Q01DX009 (ip), vehicle: saline
[9] = endpoint: mean survival time, dose: 400.0 mg/kg/injection, schedule: Q04DX003 (ip), vehicle: saline with Tween-80
[10] = endpoint: mean survival time, dose: 400.0 mg/kg/injection, schedule: Q01DX001 (ip), vehicle: saline with Tween-80

Compound: C=COCCSCC
- T/C (endpoint: mean survival time, dose: 50.0 mg/kg/injection, schedule: Q04DX003 (ip), vehicle: saline): 98 % of control
- T/C (endpoint: mean survival time, dose: 100.0 mg/kg/injection, schedule: Q01DX001 (ip), vehicle: saline): 98 % of control
- T/C (endpoint: mean survival time, dose: 100.0 mg/kg/injection, schedule: Q04DX003 (ip), vehicle: saline): 98 % of control
- T/C (endpoint: mean survival time, dose: 200.0 mg/kg/injection, schedule: Q01DX001 (ip), vehicle: saline): 97 % of control
- T/C (endpoint: mean survival time, dose: 200.0 mg/kg/injection, schedule: Q04DX003 (ip), vehicle: saline): 104 % of control
- T/C (endpoint: mean survival time, dose: 400.0 mg/kg/injection, schedule: Q01DX001 (ip), vehicle: saline): 101 % of control

Compound: CC12CCC3C(CC=C4CC(SC(=N)N)CCC43C)C1CCC2=O (stereo not given)
- T/C (endpoint: mean survival time, dose: 75.0 mg/kg/injection, schedule: Q01DX001 (ip), vehicle: steriod suspending solution): 90 % of control
- T/C (endpoint: mean survival time, dose: 150.0 mg/kg/injection, schedule: Q01DX001 (ip), vehicle: steriod suspending solution): 98 % of control
- T/C (endpoint: mean survival time, dose: 300.0 mg/kg/injection, schedule: Q01DX001 (ip), vehicle: steriod suspending solution): 98 % of control

Compound: C=C1C(O)C2(O)OCC34C(CC5C(C)=CC(=O)C(O)C5(C)C23)OC(=O)C(OC(=O)C/C=C(\C)CCCCC)C14 (stereo not given)
- T/C (endpoint: median survival time, dose: 1.0 mg/kg/injection, schedule: Q01DX005 (ip), vehicle: saline + alcohol): 109 % of control
- T/C (endpoint: median survival time, dose: 2.0 mg/kg/injection, schedule: Q01DX005 (ip), vehicle: saline + alcohol): 118 % of control
- T/C (endpoint: median survival time, dose: 8.0 mg/kg/injection, schedule: Q01DX005 (ip), vehicle: saline + alcohol): 121 % of control

Compound: O=Cc1[nH]c(=S)[nH]c(=O)c1Cc1ccc(Cl)cc1
- T/C [1]: 104 % of control

Compound: NC1=NC(c2ccccc2)N(c2ccc(Cl)cc2)C(N)=N1 (stereo not given)
- T/C [2]: 93 % of control
- T/C [3]: 95 % of control

Compound: COC1OC2COC(c3ccccc3)OC2C2OC12 (stereo not given)
- T/C [4]: 94 % of control
- T/C [5]: 92 % of control
- T/C [6]: 97 % of control

Compound: Cc1nc(N=C(N)N)nc2ccc(Cl)cc12
- T/C (endpoint: mean survival time, dose: 18.8 mg/kg/injection, schedule: Q01DX009 (ip), vehicle: saline): 97 % of control

Compound: C=CCn1c2ccccc2c2c(C)c3cnccc3c(C)c21
- T/C (endpoint: mean survival time, dose: 25.0 mg/kg/injection, schedule: Q04DX003 (ip), vehicle: saline with Tween-80): 96 % of control and 102 % of control
- T/C (endpoint: mean survival time, dose: 50.0 mg/kg/injection, schedule: Q04DX003 (ip), vehicle: saline with Tween-80): 100 % of control and 102 % of control
- T/C [1]: 103 % of control and 104 % of control
- T/C [7]: 113 % of control and 116 % of control

Compound: c1ccc(-c2ccc(C3=NC(c4ccccc4)N4C3C4c3ccccc3)cc2)cc1 (stereo not given)
- T/C (endpoint: mean survival time, dose: 6.25 mg/kg/injection, schedule: Q01DX001 (ip), vehicle: saline with Tween-80): 103 % of control
- T/C (endpoint: mean survival time, dose: 6.25 mg/kg/injection, schedule: Q01DX009 (ip), vehicle: saline with Tween-80): 91 % of control
- T/C (endpoint: mean survival time, dose: 12.5 mg/kg/injection, schedule: Q01DX001 (ip), vehicle: saline with Tween-80): 86 % of control
- T/C (endpoint: mean survival time, dose: 12.5 mg/kg/injection, schedule: Q01DX009 (ip), vehicle: saline with Tween-80): 94 % of control
- T/C (endpoint: mean survival time, dose: 25.0 mg/kg/injection, schedule: Q01DX001 (ip), vehicle: saline with Tween-80): 92 % of control

Compound: C=CCc1cn(C2CC(O)C(CO)O2)c(=O)[nH]c1=O (stereo not given)
- T/C (endpoint: mean survival time, dose: 12.5 mg/kg/injection, schedule: Q01DX009 (ip), vehicle: saline): 94 % of control and 104 % of control
- T/C (endpoint: mean survival time, dose: 25.0 mg/kg/injection, schedule: Q01DX009 (ip), vehicle: saline): 101 % of control and 107 % of control
- T/C (endpoint: mean survival time, dose: 50.0 mg/kg/injection, schedule: Q01DX009 (ip), vehicle: saline): 95 % of control and 108 % of control
- T/C (endpoint: mean survival time, dose: 100.0 mg/kg/injection, schedule: Q01DX009 (ip), vehicle: saline): 103 % of control and 110 % of control
- T/C [8]: 104 % of control and 106 % of control
- T/C (endpoint: mean survival time, dose: 400.0 mg/kg/injection, schedule: Q01DX009 (ip), vehicle: saline): 118 % of control and 111 % of control (2×)

Compound: C[n+]1cccc(C(=O)NCCc2c[nH]c3ccccc23)c1
- T/C (endpoint: mean survival time, dose: 18.75 mg/kg/injection, schedule: Q01DX009 (ip), vehicle: saline with Tween-80): 92 % of control
- T/C (endpoint: mean survival time, dose: 37.5 mg/kg/injection, schedule: Q01DX009 (ip), vehicle: saline with Tween-80): 93 % of control
- T/C (endpoint: mean survival time, dose: 37.5 mg/kg/injection, schedule: Q04DX003 (ip), vehicle: acetone): 95 % of control
- T/C (endpoint: mean survival time, dose: 75.0 mg/kg/injection, schedule: Q01DX009 (ip), vehicle: saline with Tween-80): 97 % of control
- T/C (endpoint: mean survival time, dose: 75.0 mg/kg/injection, schedule: Q04DX003 (ip), vehicle: acetone): 95 % of control

Compound: NC(=O)NC1CCCCCCC1
- T/C [4]: 102 % of control
- T/C [5]: 100 % of control
- T/C [6]: 110 % of control

Compound: CS(=O)(=O)OCCN(CCOS(C)(=O)=O)c1ccc(C=Nc2ccc(-c3csc(COc4ccccc4)n3)cc2)cc1
- T/C (endpoint: mean survival time, dose: 12.5 mg/kg/injection, schedule: Q01DX009 (ip), vehicle: Klucel (hydroxypropylcellulose) (HPC)): 119 % of control
- T/C (endpoint: mean survival time, dose: 25.0 mg/kg/injection, schedule: Q01DX009 (ip), vehicle: Klucel (hydroxypropylcellulose) (HPC)): 110 % of control
- T/C (endpoint: mean survival time, dose: 50.0 mg/kg/injection, schedule: Q01DX009 (ip), vehicle: Klucel (hydroxypropylcellulose) (HPC)): 112 % of control
- T/C (endpoint: mean survival time, dose: 100.0 mg/kg/injection, schedule: Q01DX009 (ip), vehicle: Klucel (hydroxypropylcellulose) (HPC)): 115 % of control
- T/C (endpoint: mean survival time, dose: 200.0 mg/kg/injection, schedule: Q01DX009 (ip), vehicle: Klucel (hydroxypropylcellulose) (HPC)): 120 % of control
- T/C (endpoint: mean survival time, dose: 400.0 mg/kg/injection, schedule: Q01DX008 (ip), vehicle: Klucel (hydroxypropylcellulose) (HPC)): 150 % of control
- T/C (endpoint: mean survival time, dose: 400.0 mg/kg/injection, schedule: Q01DX009 (ip), vehicle: Klucel (hydroxypropylcellulose) (HPC)): 106 % of control and 107 % of control

Compound: CN(N=O)C(=O)NC1C(CO)OC2OC(C)(C)OC21 (stereo not given)
- T/C (endpoint: mean survival time, dose: 100.0 mg/kg/injection, schedule: Q04DX003 (ip), vehicle: saline sonified): 94 % of control
- T/C (endpoint: mean survival time, dose: 132.0 mg/kg/injection, schedule: Q01DX009 (ip), vehicle: saline): 151 % of control
- T/C [8]: 198 % of control
- T/C (endpoint: mean survival time, dose: 200.0 mg/kg/injection, schedule: Q04DX003 (ip), vehicle: saline sonified): 100 % of control
- T/C (endpoint: mean survival time, dose: 300.0 mg/kg/injection, schedule: Q01DX009 (ip), vehicle: saline): 105 % of control
- T/C (endpoint: mean survival time, dose: 400.0 mg/kg/injection, schedule: Q04DX003 (ip), vehicle: saline sonified): 107 % of control

Compound: S=C(S)NC1CCCCCCCCCCC1
- T/C [1]: 102 % of control
- T/C [7]: 100 % of control
- T/C [9]: 93 % of control

Compound: COc1ccc(OC)c(C2N(C)CCCN2C)c1
- T/C (endpoint: mean survival time, dose: 6.25 mg/kg/injection, schedule: Q01DX009 (ip), vehicle: saline sonified): 90 % of control
- T/C (endpoint: mean survival time, dose: 6.25 mg/kg/injection, schedule: Q04DX003 (ip), vehicle: saline sonified): 100 % of control
- T/C (endpoint: mean survival time, dose: 12.5 mg/kg/injection, schedule: Q01DX009 (ip), vehicle: saline sonified): 88 % of control
- T/C (endpoint: mean survival time, dose: 12.5 mg/kg/injection, schedule: Q04DX003 (ip), vehicle: saline sonified): 101 % of control
- T/C (endpoint: mean survival time, dose: 25.0 mg/kg/injection, schedule: Q01DX009 (ip), vehicle: saline sonified): 103 % of control
- T/C (endpoint: mean survival time, dose: 25.0 mg/kg/injection, schedule: Q04DX003 (ip), vehicle: saline sonified): 100 % of control

Compound: COC(=O)CC1(C)C(=O)CCC2(C)C1=CCc1ccc(OC)cc12 (stereo not given)
- T/C (endpoint: mean survival time, dose: 100.0 mg/kg/injection, schedule: Q01DX001 (sc), vehicle: steriod suspending solution): 102 % of control
- T/C (endpoint: mean survival time, dose: 200.0 mg/kg/injection, schedule: Q01DX001 (sc), vehicle: steriod suspending solution): 96 % of control
- T/C (endpoint: mean survival time, dose: 400.0 mg/kg/injection, schedule: Q01DX001 (sc), vehicle: steriod suspending solution): 101 % of control

Compound: CCCCCCCCCCCCCCCCCCCCCC(O)(CC)CC
- T/C [4]: 97 % of control
- T/C [1]: 94 % of control
- T/C [5]: 94 % of control
- T/C [7]: 94 % of control
- T/C [6]: 100 % of control
- T/C [9]: 95 % of control

Compound: CNc1cc([N+](=O)[O-])ccc1Br
- T/C (endpoint: mean survival time, dose: 100.0 mg/kg/injection, schedule: Q04DX002 (ip), vehicle: other): 91 % of control
- T/C (endpoint: mean survival time, dose: 200.0 mg/kg/injection, schedule: Q04DX002 (ip), vehicle: other): 100 % of control
- T/C (endpoint: mean survival time, dose: 400.0 mg/kg/injection, schedule: Q04DX002 (ip), vehicle: other): 95 % of control

Compound: Cc1cnc(N)nc1-c1ccccc1
- T/C [2]: 102 % of control
- T/C [3]: 94 % of control
- T/C [10]: 94 % of control

Compound: OC1CCC2CCC1C2 (stereo not given)
- T/C [2]: 102 % of control
- T/C [3]: 104 % of control
- T/C [10]: 101 % of control

Compound: CN(C)S(=O)(=O)CC(O)(c1ccccc1)c1ccccc1
- T/C [1]: 103 % of control
- T/C [7]: 103 % of control
- T/C [9]: 110 % of control

Compound: COC(=O)C(c1ccccc1)C(c1ccccc1)c1ccccc1 (stereo not given)
- T/C (endpoint: mean survival time, dose: 100.0 mg/kg/injection, schedule: Q04DX002 (ip), vehicle: saline with Tween-80): 95 % of control
- T/C (endpoint: mean survival time, dose: 200.0 mg/kg/injection, schedule: Q04DX002 (ip), vehicle: saline with Tween-80): 87 % of control

Compound: On1ccc(=S)c2ccccc21
- T/C [1]: 102 % of control
- T/C [7]: 96 % of control
- T/C [9]: 102 % of control
